The conditions of data set [1]: mammals; cited from earlier work.
Data set [2] deals with cannabinoid receptor type-2 (CB2) (Homo sapiens, UniProt P34972). The settings on record: cited from earlier work.
For data set [3] the following is noted: mice; cited from earlier work.
For data set [4] the following is noted: one study; cited from earlier work.
Data set [5] in a line: Tape-strip test of THC absorbance into pig skin after topical application of salve. Format: in vitro ADME. How it is done:
A composition as described herein, e.g., in the form of a salve containing 1000 mg THC and carrier components was tested for its absorbance into skin following topical application to the skin of an animal (pig).
The absorbance testing procedure was performed as follows: the salve/lotion composition was applied topically to an area of the skin of a pig. Approximately 500 mg of the salve/lotion composition was applied to the area of skin using a gloved finger. The composition was applied to the skin by rubbing in a circular motion. The applied composition (salve composition) remained on the skin for different time periods, i.e., 10 minutes, 30 minutes, or 60 minutes, to allow the components of the composition, e.g., THC, to absorb into the skin. At the end of each time period, the area of the skin on which the composition had been applied was contacted with adhesive strips to test for the presence of residual cannabinoids, using an adhesive test tape (strip) method, e.g., as known in the art. (See, e.g., A. L. M. Ruela et al., 2016, BJPS, Vol. 52, No. 3:527-544; S. Zsiko et al., 2019, Sci. Pharm. (Review), Vol. 87, No. 19; doi:10.3390/scipharm87030019, 21 pages). In general, the tape-stripping technique is employed for analysis of penetration of an active or component (e.g., THC) into the stratum corneum. The procedure may be applied using an animal skin model, such as pig skin, e.g., a portion of skin removed from the animal. The procedure involved the sequence removal of cell layers of the stratum corneum by application of pieces (strips) of adhesive tape. The residues of the applied composition or formulation were removed from the skin surface, and the adhesive strip was applied by using pressure to ensure its adhesion to the skin. […]
FIG. 1 illustrates the results of the time course experiment following absorption testing 10 minutes after the composition comprising 1000 mg THC+carrier ingredients was applied to the animal's skin. Absorption or permeation of THC (ppm) per layer of skin (20 skin layers deep) was assessed using adhesive test strips. […]

Sequence of cannabinoid receptor type-2 (CB2) (P34972 whole entry, species assumed): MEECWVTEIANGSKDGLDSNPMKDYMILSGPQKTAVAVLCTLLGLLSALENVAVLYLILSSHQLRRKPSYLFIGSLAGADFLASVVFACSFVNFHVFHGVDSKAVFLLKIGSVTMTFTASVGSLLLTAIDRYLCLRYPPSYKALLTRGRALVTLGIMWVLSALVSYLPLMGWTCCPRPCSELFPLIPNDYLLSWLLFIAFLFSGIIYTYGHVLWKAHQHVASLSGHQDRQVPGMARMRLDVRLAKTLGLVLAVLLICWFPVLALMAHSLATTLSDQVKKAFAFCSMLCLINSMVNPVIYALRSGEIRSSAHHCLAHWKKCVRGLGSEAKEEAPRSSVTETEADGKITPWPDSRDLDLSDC

With `C/C1=C\CC/C(C)=C/CC(C)(C)/C=C/C1` [Humulene], the anti-inflammatory activity result in data set [1] was “effects similar to those of dexamethasone”. As for `C=C1CCC=C(C)CCC2C1CC2(C)C` (stereo not shown) [Caryophyllene, 4,11,11-trimethyl-8-methylene-bicyclo[7.2.0]undec-4-ene], in data set [2], the “activity at CB2” value is “selective agonist”. The anti-inflammatory effects entry in data set [3] was “significant cannabi-mimetic, anti-inflammatory effects”. With `C=C(C)[C@@H]1CCC(C)=C[C@H]1c1c(O)cc(CCCCC)cc1O` [CBD, (−)-trans-cannabidiol], in data set [4], the “relieving pain and reducing inflammation compared with aspirin” value is reported as “more effective than aspirin”. In the case of `CCCCCc1cc(O)c2c(c1)OC(C)(C)[C@@H]1CCC(C)=C[C@@H]21` [THC, Δ^9-tetrahydrocannabinol], in data set [5] (5 ppm limit of quantification (LOQ), pig skin tape strips), the “presence of cannabinoids in the skin layers beneath the stratum corneum” value is given as “inability to detect the presence of cannabinoids”. In data set [5] (60 minutes after topical application, salve containing 1000 mg THC + carrier, pig skin), the “location of THC component in skin” value is on record as “the majority of the THC component had entered the stratum corneum”. Moreover, the “time after topical application at which absorption or penetration of THC into the skin was highest” value in data set [5] (salve containing 1000 mg THC + carrier, approx. 500 mg applied to pig skin, 20 tape strips, HPLC) was in the range of 10 to 30 min.

Source of the values: patent US20200345686A1, “COMPOSITIONS AND METHODS FOR TREATING SKIN AND N[…] DISORDERS” (VCP IP HOLDINGS, LLC, LIMITED LIABILITY COMPANY DELAWARE, priority 2019, published 2020).
